Experimental data: patent US9518000B2, “Bicyclo [2.2.1] acid GPR120 modulators” (BRISTOL-MYERS SQUIBB COMPANY, priority 2013, dated 2016)

Columns and labels:
human GPR120 = human GPR120 (Homo sapiens (Human), UniProt Q5NUL3); assay: GPR120 pERK AlphaScreen SureFire Assay (human GPR120 pERK assay); assay type: cell-based; details: CHOA12 or CHO-K1 cells stably transfected with the short form of human GPR120 receptor; phosphorylated ERK; read-out: EC50 values measured in the human GPR120 pERK assay
Chain of human GPR120 (Q5NUL3 whole entry): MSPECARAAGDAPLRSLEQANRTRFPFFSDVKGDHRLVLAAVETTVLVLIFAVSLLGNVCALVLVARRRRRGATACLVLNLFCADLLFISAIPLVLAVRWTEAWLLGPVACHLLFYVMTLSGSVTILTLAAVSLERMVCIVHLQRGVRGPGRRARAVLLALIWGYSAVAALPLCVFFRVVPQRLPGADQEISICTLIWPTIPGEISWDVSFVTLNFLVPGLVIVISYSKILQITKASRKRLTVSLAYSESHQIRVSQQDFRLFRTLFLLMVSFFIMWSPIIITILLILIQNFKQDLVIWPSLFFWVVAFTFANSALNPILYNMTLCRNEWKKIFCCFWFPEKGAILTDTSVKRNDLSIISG
Method in brief: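 CHO cells (CHOA12 or CHO-K1) stably expressing short-form human GPR120 were serum-starved for 2 h, then exposed to compound for 7 min at 37 °C over an 11-point range of 33.33 μM–0.56 nM final. ERK phosphorylation was read by AlphaScreen SureFire and normalised to DMSO and to 50 μM linolenic acid. EC50 was derived from a 4-parameter logistic fit.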

C57BL/6 mice = assay: Acute Oral Glucose Tolerance Test; assay type: in vivo; details: oral glucose tolerance test in mice at dose of 30 mg/kg; AUC t=0-120 min compared to vehicle
Protocol: In Vivo GPR120 Assays 1) Acute Oral Glucose Tolerance Test
C57BL/6 mice were housed individually and fed a standard rodent chow diet. At approximately 11 weeks age, after a 5 h fast, these mice were orally treated with vehicle or test compounds 60 min before a glucose challenge (2 g/kg). Blood glucose levels were determined from tail bleeds taken at −60, 0, 15, 30, 60 and 120 min after the glucose challenge. The blood glucose excursion profile from t=0-120 min was used to calculate an area under the curve (AUC) for compound treatment. This AUC for compound treatment is compared to vehicle treatment.

EC50 (human GPR120) | Compound | reduced glucose AUC levels (C57BL/6 mice)
0.6 µM | O=C(O)[C@H]1C[C@@H]1CC12CCC(OCc3cc(F)cc(Oc4ccccc4)c3)(CC1)C2 (single isomer, unassigned) [Example 92] | 25%
0.94 µM | O=C(O)COCC12CCC(OCc3cc(Cl)cc(OC(F)(F)F)c3)(CC1)C2 [Example 78, 2-((4-((3-chloro-5-(trifluoromethoxy)benzyl)oxy)bicyclo[2.2.1]heptan-1-yl)methoxy)acetic acid] | –
1.62 µM | O=C(O)COCC12CCC(OCc3cc(F)cc(Oc4ccccc4)c3)(CC1)C2 [Example 73, 2-((4-(3-fluoro-5-phenoxybenzyloxy)bicyclo [2.2.1]heptan-1-yl)methoxy) acetic acid] | 21%
